# “Also recorded” adds a separate entry of the source. Where no end group is shown, it is not given here.
# Key:
# PDHR 41189 = target: T1, PDHR 41189 (Carcinus maenas, UniProt A0A7G7MT96); assay: heterologous aequorin-based receptor luminescence assay, PDHR 41189; assay type: cell-based; conditions: Ca2+ luminescence; for activation of PDHR 41189 (in words): CHO-K1-Aeq-Gα16 cells
# T1 sequence (A0A7G7MT96 1-455): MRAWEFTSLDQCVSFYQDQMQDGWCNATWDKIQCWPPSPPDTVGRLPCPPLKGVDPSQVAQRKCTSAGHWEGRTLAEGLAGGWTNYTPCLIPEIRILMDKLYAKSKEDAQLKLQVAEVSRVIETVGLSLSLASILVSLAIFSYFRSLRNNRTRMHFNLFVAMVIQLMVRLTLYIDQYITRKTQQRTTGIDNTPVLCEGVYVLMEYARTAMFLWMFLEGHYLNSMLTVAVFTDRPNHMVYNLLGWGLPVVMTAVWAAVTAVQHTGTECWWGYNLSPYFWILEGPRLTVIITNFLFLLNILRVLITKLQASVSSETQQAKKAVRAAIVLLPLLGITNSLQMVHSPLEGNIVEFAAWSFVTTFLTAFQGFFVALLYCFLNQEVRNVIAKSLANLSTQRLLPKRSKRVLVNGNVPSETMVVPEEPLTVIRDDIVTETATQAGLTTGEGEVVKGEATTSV
# Experimental: (§1) PCR of these transcripts was performed as described previously ([Alexander J. et al., 2018]; [Alexander J. L. et al., 2018]). Primer sequences for directional cloning and expression are shown in Supplementary Table 1. Correctly sized PCR products were directionally cloned into pcDNA 3.1 D/V5-His-TOPO plasmids (Invitrogen) and the recombinant vector transformed into TOP 10 competent cells (Invitrogen). Positive clones were cultured overnight in selective LB medium with 100 μg ml^–1 ampicillin, plasmids extracted (FastPlasmid Mini Kit, 5Prime, Hamburg, Germany), resequenced to confirm insert orientation and verification (MWG Eurofins, Ebersberg, Germany), and analyzed using Geneious V 9.1.8.
# (§2) A heterologous cell–based assay using Chinese hamster ovary cells (CHO-K1) expressing apoaequorin (Perkin Elmer, Boston, MA, […]) and either the Gα16 or Gq subunit (control cells) was used to report intracellular Ca^2+ fluxes after exposure to ligand, as previously detailed ([Alexander J. et al., 2018]; [Alexander J. L. et al., 2018]).
# (§3) Peptides used in the luminescence assay were synthetic C. maenas PDH-1-3 and e-PDH, DH-31 (Genecust Dudelange, Luxembourg). Peptides were reconstituted in 30% acetonitrile, aliquoted and dried by vacuum centrifugation and subsequently re-dissolved in BSA medium (DMEM/F, 50 mM HEPES, 0.1% BSA) immediately prior to assay, and dispensed into quadruplicate wells of white 96 well plates (OptiPlate, Perkin Elmer). Cell suspensions (5 × 10^6 cells/ml) were stirred gently and 50 μl amounts were injected into each well using a Mithras LB940 microplate reader (Berthold Technologies, Bad-Wildbad, Germany). Ca^2+ evoked luminescence was recorded for 40 s, followed by cell lysis (injection of 0.3% Triton-X 100 in BSA medium), and light emission recorded for a further 10 s. BSA medium was used for blank measurements (6 replicates per plate), and mock transfections with empty vectors for negative controls. Data reduction and analysis was done using MikroWin v5.18 (Mikrotek Laborsysteme, GmBH, Overath, Germany) and SigmaPlot v.13 (Systat Software Inc., San José CA, United States). Receptor responses were normalized against total Ca^2+ luminescence.
# PDHR 43673 = target: T2, PDHR 43673 (Carcinus maenas, UniProt A0A7G7MT97); assay: heterologous aequorin-based receptor luminescence assay, PDHR 43673; assay type: cell-based; conditions: Ca2+ luminescence; for activation of PDHR 43673 (in words): CHO-K1-Aeq-Gα16 cells
# T2 sequence (A0A7G7MT97 1-455): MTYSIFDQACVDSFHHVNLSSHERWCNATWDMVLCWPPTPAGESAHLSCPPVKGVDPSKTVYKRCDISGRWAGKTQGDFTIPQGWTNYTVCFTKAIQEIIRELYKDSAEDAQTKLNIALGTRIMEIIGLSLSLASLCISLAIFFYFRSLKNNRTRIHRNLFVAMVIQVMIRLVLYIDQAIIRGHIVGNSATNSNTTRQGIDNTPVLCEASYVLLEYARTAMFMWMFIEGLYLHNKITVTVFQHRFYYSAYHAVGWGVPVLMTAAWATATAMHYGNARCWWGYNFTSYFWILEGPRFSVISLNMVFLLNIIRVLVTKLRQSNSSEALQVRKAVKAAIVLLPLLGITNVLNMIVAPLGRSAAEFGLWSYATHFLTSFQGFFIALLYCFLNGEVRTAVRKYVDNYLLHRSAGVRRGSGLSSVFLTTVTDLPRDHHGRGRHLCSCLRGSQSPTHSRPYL
# Experimental: as §1, §2, §3
# [1] = test system: red and black chromatophores in the dactyl of the last walking leg; assay: chromatophore dispersion bioassay in vivo, red and black chromatophores; design: species or system Carcinus maenas; conditions: n = 6 crabs; for potency in chromatophore dispersion assay (in words): injected 0.05–5 pmol per crab
# Experimental: (§4) The pigmentary effector activity of all PDHs was measured in vivo using small (15–20 mm carapace width) C. maenas, which were light adapted against a white background (300 lux for 1 h). Pigment dispersion of the red and black chromatophores in the dactyl of the last walking leg was observed microscopically and indices of dispersion scored ([Hogben and Slome, 1931]). Peptides were reconstituted in physiological saline ([Saver et al., 1999]) immediately prior to assay, to minimize Met oxidation (storage of reconstituted peptides in frozen saline for extended periods completely abolished biological activity) and injected (10 μl) using hand-drawn, calibrated microcapillaries at 50–0.05 pmol per crab, with saline controls. Chromatophore dispersion indices were scored at 20 min intervals for 1 h.
# (§5) FIGURE 9 The effect of PDHs on pigment migration in epidermal chromatophores of the 5th walking leg dactylus of C. maenas. Left panel: erythrophores, right panel: melanophores. Peptides were injected at 0.05–5 pmol per crab for PDH-1, -2, 5–50 pmol per crab for PDH-3, e-PDH, in 10 μl volumes. Mean (n = 6 crabs) chromatophore indices (Hogben-Slome) are indicated. Asterisks indicate significant differences in chromatophore stage (p < 0.05, Wilcoxon sign-rank test) 40 min after injection of peptide, compared to 0 min.
# [2] = test system: red chromatophores (erythrophores) in the dactyl of the last walking leg; assay: chromatophore dispersion bioassay in vivo, red chromatophores (erythrophores); design: species or system Carcinus maenas; conditions: n = 6 crabs; for dose giving significant dispersion of red chromatophores (erythrophores): 40 min after injection, 10 μl, p < 0.05, Hogben-Slome index; for dispersion of red chromatophores (in words): significant responses to doses of around 0.5 pmol per crab 40 min after injection
# Experimental: as §4, §5
# [3] = test system: black chromatophores (melanophores) in the dactyl of the last walking leg; assay: chromatophore dispersion bioassay in vivo, black chromatophores (melanophores); design: species or system Carcinus maenas; conditions: injected 0.05–5 pmol per crab; n = 6 crabs; melanophores were invariably partially dispersed in all crabs
# Experimental: as §4, §5
# anti-PDH antiserum R171 = assay: enzyme immunoassay (EIA), cross-reactivity with PDH antiserum R171; assay type: binding; conditions: for dose required to give an absorbance of 1.0 in the EIA: PDH antiserum R171 raised to PDH-1, 1:2000, absorbance at 405 nm
# Experimental: Fixed nervous systems were processed for whole mount IHC as previously described ([Webster et al., 2013]). In some, whole eyestalks, including cuticle were taken from postmolt crabs, and routinely fixed (Bouin’s) and processed for paraffin wax embedding; thick serial sections (25–30 μm) were then prepared and processed for IHC. Primary antiserum concentrations [anti-PDH code R171, raised to a thyroglobulin conjugate of PDH-1 as described ([Dircksen et al., 1987]) and characterized ([Wilcockson et al., 2011])] was 1:2000. Secondary antiserum dilution (Alexa Fluor 488 goat anti-rabbit, Invitrogen, Thermo Fisher Scientific) was 1:750. Preparations were mounted on cavity slides using Vectashield (VectorLabs, United Kingdom), cover slipped, sealed with nail varnish, and images collected and Z-stacked at 5 μm intervals on a Zeiss 710 confocal microscope equipped with Zen Black edition software (Carl Zeiss, Jena, Germany).
# To identify the neurohormonal PDH inventory, 50 sinus glands (SG) were extracted in 2 M acetic acid and separated by HPLC. Conditions: 4.6 mm × 300 mm Jupiter C18 300 Å column (Phenomenex, Macclesfield, United Kingdom) 40–80% solvent B over 30 min, 1 ml/min, detection at 210 nm, solvent A, 0.11% trifluoroacetic acid (TFA); solvent B 60% acetonitrile, 0.1% TFA. Fractions (1 ml) were dried by vacuum centrifugation and reconstituted in 0.1 M bicarbonate buffer, pH 9.3 immediately prior to immunoassay. Standard PDHs (800 pmol) were subsequently chromatographed to establish SG fractions for further MS analysis. PDH immunoreactive fractions were identified by enzyme immunoassay (EIA). Reconstituted fractions (100 μl) were coated onto high protein binding microplates (Costar 3590, Corning, VWR International, United Kingdom), overnight at 4 °C, followed by washing (3 times with 0.1 M bicarbonate buffer), blocking (0.1% BSA, 1 h RT) and incubation in 100 μl/well 1:2000 anti-PDH in containing 0.1% Tween 20 (PBST), overnight 4 °C. After washing (5 times with PBST), plates were incubated in 1:5000 goat anti-rabbit peroxidase labeled IgG (Vector laboratories, United Kingdom), for 6 h, RT. After washing (5 times with PBST), peroxidase activity was visualized (0.04% ABTS, 0.01% H2O2 (30%), 0.1 M phosphate/citrate buffer, pH 4.0). PDH-1 2500-2.5 fmol per well was used to generate standard curves for quantification. Absorbance at 405 nm was measured on a microplate reader (Mithras LB 940) with data analysis (MikroWin v5.18).
Substance,"EC50 (PDHR 41189; approximate EC50, CHO-K1-Aeq-Gα16 cells transiently expressing PDHR 41189, means of N = 4, normalized against maximum luminescence responses for PDH-1) [µM]","EC50 (PDHR 43673; approximate EC50, CHO-K1-Aeq-Gα16 cells transiently expressing PDHR 43673, means of N = 4, normalized against maximum luminescence responses for PDH-1) [µM]",potency in chromatophore dispersion assay (in words) [1],dose giving significant dispersion of red chromatophores (erythrophores) [2],"dispersion of red chromatophores at the lowest dose (in words) ([2]; lowest dose, 50 fmol per crab)",dispersion of red chromatophores (in words) [2],dispersion of black chromatophores (melanophores) (in words) [3],activation of PDHR 41189 (in words) (PDHR 41189),dose required to give an absorbance of 1.0 in the EIA (anti-PDH antiserum R171),activation of PDHR 43673 (in words) (PDHR 43673),"chromatophore-dispersing activity (in words) ([1]; 5–50 pmol per crab, highest dose 50 pmol per crab)",specificity of antiserum (in words) (anti-PDH antiserum R171; PDH antiserum R171)
"PDH-3: synthetic C. maenas pigment dispersing hormone 3, 18 residues, C-terminal Ala-amide; MN602309",0.025,10,,,,,,,,,,
NSELINSLLGLSRLMNEA-NH2 [PDH-2],,,exhibit biological activity in the chromatophore dispersion assay; also recorded: very potent in the chromatophore dispersion assay,around 0.5 pmol per crab,some pigment dispersion was observed at the lowest dose (50 fmol per crab) although this was transient and statistically not significant,effective in dispersing red chromatophores (erythrophores),"also dispersed black chromatophores (melanophores), but to a lesser extent","high nanomolar concentrations of PDH-1, -2 were needed to result in a luminescent signal","> 10,000 fmol","activated by PDH-1 and PDH-2 at low nanomolar doses; also recorded: much more sensitive and larger luminescence responses; also recorded: activated the 43673 receptor in the low nanomolar range; also recorded: pronounced selectivity for PDH-1, -2",,
NSELINTLLGSQDLGNMRNA-NH2 [e-PDH],,,,,,,,activated by PDH-3 and an extended 20 residue e-PDH; also recorded: activated by PDH-3 and e-PDH at low nanomolar concentrations; also recorded: low nanomolar concentrations of PDH-3 and e-PDH activated this receptor; also recorded: preferentially activated by PDH-3 and e-PDH,8000 fmol,micromolar concentrations of PDH-3 and e-PDH were necessary to activate this receptor; also recorded: even micromolar concentrations of PDH-3 and e-PDH were needed to produce rather weak luminescence responses,"entirely without chromatophore-dispersing activity, even at the highest dose used",
NSELINSILGLPKVMNDA-NH2 [PDH-1],,,exhibit biological activity in the chromatophore dispersion assay,around 0.5 pmol per crab,,effective in dispersing red chromatophores (erythrophores),"also dispersed black chromatophores (melanophores), but to a lesser extent","high nanomolar concentrations of PDH-1, -2 were needed to result in a luminescent signal",150 fmol,"activated by PDH-1 and PDH-2 at low nanomolar doses; also recorded: much more sensitive and larger luminescence responses; also recorded: activated the 43673 receptor in the low nanomolar range; also recorded: pronounced selectivity for PDH-1, -2",,rather marked specificity to PDH-1; also recorded: marked selectivity for this peptide
"diuretic hormone-31 [DH-31, reference compound]",,,,,,,,Neither receptor was activated by DH-31,,Neither receptor was activated by DH-31,,

# — publication PMC7658428, “Pigment Dispersing Factors and Their Cognate Receptors in a Crustacean Model, With New Insights Into Distinct Neurons and Their Functions” (Frontiers in Neuroscience, 2020)
